This experiment concerns the target T1, human full-length MKNK1 (Homo sapiens, UniProt Q9BUB5, T385D).
T1 construct: purchased Carna Biosciences 02-145; host or cells: insect cells (baculovirus expression system)
Put plainly: MKNK1 kinase high ATP assay (TR-FRET). The format is biochemical. To be noted: high ATP (2 mM final), 15 min preincubation with enzyme, GST-MKNK1 (T344D). On the procedure:
MKNK1-inhibitory activity at high ATP of compounds of the present invention after their preincubation with MKNK1 was quantified employing the TR-FRET-based MKNK1 high ATP assay as described in the following paragraphs.
A recombinant fusion protein of Glutathione-S-Transferase (GST, N-terminally) and human full-length MKNK1 (amino acids 1-424 and T344D of accession number BAA 19885.1), expressed in insect cells using baculovirus expression system and purified via glutathione sepharose affinity chromatography, was purchased from Carna Biosciences (product no 02-145) and used as enzyme. As substrate for the kinase reaction the biotinylated peptide biotin-Ahx-IKKRKLTRRKSLKG (C-terminus in amide form) was used, which can be purchased e.g. from the company Biosyntan (Berlin-Buch, Germany).
For the assay 50 nL of a 100 fold concentrated solution of the test compound in DMSO was pipetted into a black low volume 384 well microtiter plate (Greiner Bio-One, Frickenhausen, Germany), 2 μL of a solution of MKNK1 in aqueous assay buffer [50 mM HEPES pH 7.5, 5 mM MgCl2, 1.0 mM dithiothreitol, 0.005% (v/v) Nonidet-P40 (Sigma)] was added and the mixture was incubated for 15 min at 22° C. to allow pre-binding of the test compounds to the enzyme before the start of the kinase reaction. Then the kinase reaction was started by the addition of 3 μL of a solution of adenosine-tri-phosphate (ATP, 3.3 mM=> final conc. in the 5 μL assay volume is 2 mM) and substrate (0.1 μM=> final conc. in the 5 μL assay volume is 0.06 μM) in assay buffer and the resulting mixture was incubated for a reaction time of 30 min at 22° C. The concentration of MKNK1 was adjusted depending of the activity of the enzyme lot and was chosen appropriate to have the assay in the linear range, typical concentrations were in the range of 0.003 μg/mL. The reaction was stopped by the addition of 5 μL of a solution of TR-FRET detection reagents (5 nM streptavidine-XL665 [Cisbio Bioassays, Codolet, France] and 1 nM anti-ribosomal protein S6 (pSer236)-antibody from Invitrogen [#44921G] and 1 nM LANCE EU-W1024 labeled ProteinG [Perkin-Elmer, product no. AD0071]) in an aqueous EDTA-solution (100 mM EDTA, 0.1% (w/v) bovine serum albumin in 50 mM HEPES pH 7.5).
The resulting mixture was incubated for 1 h at 22° C. to allow the formation of complex between the phosphorylated biotinylated peptide and the detection reagents. Subsequently the amount of phosphorylated substrate was evaluated by measurement of the resonance energy transfer from the Eu-chelate to the streptavidine-XL. Therefore, the fluorescence emissions at 620 nm and 665 nm after excitation at 350 nm were measured in a TR-FRET reader, e.g. a Rubystar (BMG Labtechnologies, Offenburg, Germany) or a Viewlux (Perkin-Elmer). The ratio of the emissions at 665 nm and at […] was taken as the measure for the amount of phosphorylated substrate. The data were normalised (enzyme reaction without inhibitor=0% inhibition, all other assay components but no enzyme=100% inhibition).
(In general: TR-FRET usually uses a lanthanide donor and a delayed reading to cut background.)

Structures are written as SMILES.

By IC50 is commonly meant the concentration needed to halve the response being measured. Lower therefore signals inhibition by little substance.

T1 sequence (Q9BUB5 1-424 isoform Q9BUB5-2 T344D): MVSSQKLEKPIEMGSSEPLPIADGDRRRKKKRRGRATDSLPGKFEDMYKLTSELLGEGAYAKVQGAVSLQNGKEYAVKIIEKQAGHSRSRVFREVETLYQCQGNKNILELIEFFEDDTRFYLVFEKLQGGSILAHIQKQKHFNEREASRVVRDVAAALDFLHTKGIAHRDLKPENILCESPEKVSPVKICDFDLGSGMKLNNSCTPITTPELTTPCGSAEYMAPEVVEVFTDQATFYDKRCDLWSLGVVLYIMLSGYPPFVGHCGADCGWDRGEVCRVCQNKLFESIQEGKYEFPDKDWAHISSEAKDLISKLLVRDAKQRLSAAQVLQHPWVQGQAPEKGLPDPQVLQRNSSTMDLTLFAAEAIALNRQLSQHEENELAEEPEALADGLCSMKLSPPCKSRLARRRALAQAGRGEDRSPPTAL

With `COc1nc2[nH]ncc2cc1Nc1ncnc2[nH]c(C(=O)N(C)CCN(C)C)c(Br)c12` [Example 62, 5-Bromo-N-[2-(dimethylamino)ethyl]-4-[(6-methoxy-1H-pyrazolo[3,4-b]pyridin-5-yl)amino]-N-methyl-7H-pyrrolo[2,3-d]pyrimidine-6-carboxamide], the half-maximal inhibitory concentration (IC50) stood at 12 nM.
Under `CCCN(C)C(=O)[C@H]1CCc2c(sc3ncnc(Nc4cnc5[nH]ncc5c4)c23)C1` [Example 93, (7S)—N-Methyl-N-propyl-4-(1H-pyrazolo[3,4-b]pyridin-5-ylamino)-5,6,7,8-tetrahydro[1]benzothieno[2,3-d]pyrimidine-7-carboxamide] stands 13.5 nM; under `CN(C)C1CCN(C(=O)c2[nH]c3ncnc(Nc4cc5cn[nH]c5cn4)c3c2Br)CC1` [Example 69, [5-Bromo-4-(1H-pyrazolo[3,4-c]pyridin-5-ylamino)-7H-pyrrolo[2,3-d]pyrimidin-6-yl][4-(dimethylamino)piperidin-1-yl]methanone], 19.8 nM; under `CCN(C)C(=O)[C@H]1CCc2c(sc3ncnc(Nc4cc5cn[nH]c5nc4OC)c23)C1` [Example 39, (7S)—N-Ethyl-4-[(6-methoxy-1H-pyrazolo[3,4-b]pyridin-5-yl)amino]-N-methyl-5,6,7,8-tetrahydro[1]benzothieno[2,3-d]pyrimidine-7-carboxamide], 1 nM.
The compound `COc1nc2[nH]ncc2cc1Nc1ncnc2[nH]c(C(=O)N3CCOC[C@H]3C)c(Br)c12` [Example 66] registered an IC50 of 8.3 nM. This IC50 lies about 8.3-fold higher than the previous one.
As for `CN(CCC(F)(F)F)C(=O)[C@H]1CCc2c(sc3ncnc(Nc4cnc5[nH]ncc5c4)c23)C1` [Example 94, (7S)—N-Methyl-4-(1H-pyrazolo[3,4-b]pyridin-5-ylamino)-N-(3,3,3-trifluoropropyl)-5,6,7,8-tetrahydro[1]benzothieno[2,3-d]pyrimidine-7-carboxamide], inhibition was half-maximal at 8.2 nM (IC50).
Regarding `CN(C)CCNC(=O)c1[nH]c2ncnc(Nc3cnc4[nH]ncc4c3)c2c1Br` [Example 124, 5-Bromo-N-[2-(dimethylamino)ethyl]-4-(1H-pyrazolo[3,4-b]pyridin-5-ylamino)-7H-pyrrolo[2,3-d]pyrimidine-6-carboxamide], the IC50 stood at 65.9 nM.
Take `OCc1c[nH]c2ncnc(Nc3cnc4[nH]ncc4c3)c12` [Example 17, [4-(1H-Pyrazolo[3,4-b]pyridin-5-ylamino)-7H-pyrrolo[2,3-d]pyrimidin-5-yl]methanol]: the IC50 stood at 32.2 nM.
Take `CCCN(C)C(=O)[C@H]1CCc2c(sc3ncnc(Nc4cc5cn[nH]c5nc4OC)c23)C1` [Example 38, (7S)-4-[(6-Methoxy-1H-pyrazolo[3,4-b]pyridin-5-yl)amino]-N-methyl-N-propyl-5,6,7,8-tetrahydro[1]benzothieno[2,3-d]pyrimidine-7-carboxamide]: half-maximal inhibition (IC50) was put at 1.4 nM.
The figure for `CN(C)C(=O)[C@H]1CCc2c(sc3ncnc(Nc4cc5cn[nH]c5nc4O)c23)C1` [Example 54, (7S)-4-[(6-Hydroxy-1H-pyrazolo[3,4-b]pyridin-5-yl)amino]-N,N-dimethyl-5,6,7,8-tetrahydro[1]benzothieno[2,3-d]pyrimidine-7-carboxamide] is 6.9 nM; for `CCN(C)C(=O)[C@H]1CCc2c(sc3ncnc(Nc4cc5cn[nH]c5cn4)c23)C1` [Example 58, (7S)—N-Ethyl-N-methyl-4-(1H-pyrazolo[3,4-c]pyridin-5-ylamino)-5,6,7,8-tetrahydro[1]benzothieno[2,3-d]pyrimidine-7-carboxamide] it is 17.3 nM.
Regarding `CN(C)[C@H]1CCN(C(=O)[C@H]2CCc3c(sc4ncnc(Nc5cc6cn[nH]c6cn5)c34)C2)C1` [Example 85, [(3S)-3-(Dimethylamino)pyrrolidin-1-yl][(7S)-4-(1H-pyrazolo[3,4-c]pyridin-5-ylamino)-5,6,7,8-tetrahydro[1]benzothieno[2,3-d]pyrimidin-7-yl]methanone], the IC50 was 4.5 nM.
As to `CN(C)C1CN(C(=O)[C@H]2CCc3c(sc4ncnc(Nc5cc6cn[nH]c6cn5)c34)C2)C1` [Example 140, 10 [3-(Dimethylamino)azetidin-1-yl][(7S)-4-(1H-pyrazolo[3,4-c]pyridin-5-ylamino)-5,6,7,8-tetrahydro[1]benzothieno[2,3-d]pyrimidin-7-yl]methanone], the IC50 was 2.4 nM.
The figure for `O=C([C@H]1CCc2c(sc3ncnc(Nc4cnc5[nH]ncc5c4)c23)C1)N1CCOCC1` [Example 102, Morpholin-4-yl[(7S)-4-(1H-pyrazolo[3,4-b]pyridin-5-ylamino)-5,6,7,8-tetrahydro[1]benzothieno[2,3-d]pyrimidin-7-yl]methanone] is 27 nM; for `COCCN(C)C(=O)[C@H]1CCc2c(sc3ncnc(Nc4cnc5[nH]ncc5c4)c23)C1` [Example 96, (7S)—N-(2-Methoxyethyl)-N-methyl-4-(1H-pyrazolo[3,4-b]pyridin-5-ylamino)-5,6,7,8-tetrahydro[1]benzothieno[2,3-d]pyrimidine-7-carboxamide] it is 18.8 nM.
Consider `CC(C)NC(=O)C1CCc2c(sc3ncnc(Nc4cnc5[nH]ncc5c4)c23)C1` (racemic) [Example 23, (RS)—N-(Propan-2-yl)-4-(1H-pyrazolo[3,4-b]pyridin-5-ylamino)-5,6,7,8-tetrahydro[1]benzothieno[2,3-d]pyrimidine-7-carboxamide], for which inhibition was half-maximal at 10.4 nM (IC50). Compared with the last compound, the IC50 is about 1.8-fold lower.
The compound `CCCN(CCOC)C(=O)[C@H]1CCc2c(sc3ncnc(Nc4cc5cn[nH]c5nc4O)c23)C1` [Example 50, (7S)-4-[(6-Hydroxy-1H-pyrazolo[3,4-b]pyridin-5-yl)amino]-N-(2-methoxyethyl)-N-propyl-5,6,7,8-tetrahydro[1]benzothieno[2,3-d]pyrimidine-7-carboxamide] displayed a 50% inhibitory concentration (IC50) of 2.6 nM.
The figure for `COc1nc2[nH]ncc2cc1Nc1ncnc2sc3c(c12)CC[C@H](C(=O)N1CC[C@H](N(C)C)C1)C3` [Example 111, [(3S)-3-(Dimethylamino)pyrrolidin-1-yl]{(7S)-4-[(6-methoxy-1H-pyrazolo[3,4-b]pyridin-5-yl)amino]-5,6,7,8-tetrahydro[1]benzothieno[2,3-d]pyrimidin-7-yl}methanone] is 1.3 nM; for `O=C(c1[nH]c2ncnc(Nc3cc4cn[nH]c4cn3)c2c1Br)N1CCCCC1` [Example 72, [5-Bromo-4-(1H-pyrazolo[3,4-c]pyridin-5-ylamino)-7H-pyrrolo[2,3-d]pyrimidin-6-yl](piperidin-1-yl)methanone] it is 16 nM; for `CN(C)C(=O)C1CCc2[nH]c3ncnc(Nc4cc5cn[nH]c5cn4)c3c2C1` (racemic) [Example 31, (RS)—N,N-Dimethyl-4-(1H-pyrazolo[3,4-c]pyridin-5-ylamino)-6,7,8,9-tetrahydro-5H-pyrimido[4,5-b]indole-6-carboxamide] it is 59.1 nM.
The figure for `CN(C)[C@@H]1CCN(C(=O)[C@H]2CCc3c(sc4ncnc(Nc5cc6cn[nH]c6cn5)c34)C2)C1` [Example 84, [(3R)-3-(Dimethylamino)pyrrolidin-1-yl][(7S)-4-(1H-pyrazolo[3,4-c]pyridin-5-ylamino)-5,6,7,8-tetrahydro[1]benzothieno[2,3-d]pyrimidin-7-yl]methanone] is 3.6 nM.
For the compound `O=C([C@H]1CCc2c(sc3ncnc(Nc4cnc5[nH]ncc5c4)c23)C1)N1CC2(COC2)C1` [Example 98, 2-Oxa-6-azaspiro[3.3]hept-6-yl[(7S)-4-(1H-pyrazolo[3,4-b]pyridin-5-ylamino)-5,6,7,8-tetrahydro[1]benzothieno[2,3-d]pyrimidin-7-yl]methanone], 15.8 nM corresponded to half-maximal inhibition (IC50).
Regarding `CN(C)[C@H]1CCN(C(=O)[C@H]2CCc3c(sc4ncnc(Nc5cnc6[nH]ncc6c5)c34)C2)C1` [Example 100, [(3S)-3-(Dimethylamino)pyrrolidin-1-yl][(7S)-4-(1H-pyrazolo[3,4-b]pyridin-5-ylamino)-5,6,7,8-tetrahydro[1]benzothieno[2,3-d]pyrimidin-7-yl]methanone], the IC50 stood at 3.7 nM.

The record behind these values is US20160159789A1, “SUBSTITUTED PYRAZOLOPYRIDINES” (BAYER PHARMA AKTIENGESELLSCHAFT, priority 2013, published 2016).
